Laboratory results: PubChem BioAssay AID248 (DTP/NCI, 2004)
Toxic doses and inconclusive results are not listed. Cut-off read from the data, not from the text of the source: active = T/C of 150% or more; inactive = T/C below 125%.

Test system: L1210 leukemia ip in BDF1 mice, survival T/C
Test: NCI In Vivo Anticancer Drug Screen. Data for tumor model L1210 Leukemia (intraperitoneal) in B6D2F1 (BDF1) mice
Conditions: endpoint: mean survival time, higher = longer survival
How it was run: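 Transplantable tumor model; survival measured in treated vs vehicle control mice. Value = treated/control.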

[1] = dose: 100.0 mg/kg/injection, schedule: Q01DX001 (ip), vehicle: saline
[2] = dose: 200.0 mg/kg/injection, schedule: Q01DX001 (ip), vehicle: saline
[3] = dose: 400.0 mg/kg/injection, schedule: Q01DX001 (ip), vehicle: saline
[4] = dose: 222.0 mg/kg/injection, schedule: Q01DX Z (ip), vehicle: methylcellulose (MC)
[5] = dose: 333.0 mg/kg/injection, schedule: Q01DX Z (ip), vehicle: methylcellulose (MC)
[6] = dose: 100.0 mg/kg/injection, schedule: Q04DX003 (ip), vehicle: saline with Tween-80
[7] = dose: 200.0 mg/kg/injection, schedule: Q04DX003 (ip), vehicle: saline with Tween-80
[8] = dose: 400.0 mg/kg/injection, schedule: Q04DX003 (ip), vehicle: saline with Tween-80
[9] = dose: 100.0 mg/kg/injection, schedule: Q01DX009 (ip), vehicle: Klucel (hydroxypropylcellulose) (HPC)
[10] = dose: 100.0 mg/kg/injection, schedule: Q04DX003 (ip), vehicle: Klucel (hydroxypropylcellulose) (HPC)
[11] = dose: 200.0 mg/kg/injection, schedule: Q01DX009 (ip), vehicle: Klucel (hydroxypropylcellulose) (HPC)
[12] = dose: 200.0 mg/kg/injection, schedule: Q04DX003 (ip), vehicle: Klucel (hydroxypropylcellulose) (HPC)
[13] = dose: 400.0 mg/kg/injection, schedule: Q01DX009 (ip), vehicle: Klucel (hydroxypropylcellulose) (HPC)
[14] = dose: 400.0 mg/kg/injection, schedule: Q04DX003 (ip), vehicle: Klucel (hydroxypropylcellulose) (HPC)
[15] = dose: 50.0 mg/kg/injection, schedule: Q01DX009 (ip), vehicle: saline with Tween-80
[16] = dose: 100.0 mg/kg/injection, schedule: Q01DX009 (ip), vehicle: saline with Tween-80
[17] = dose: 200.0 mg/kg/injection, schedule: Q01DX009 (ip), vehicle: saline with Tween-80
[18] = dose: 25.0 mg/kg/injection, schedule: Q01DX009 (ip), vehicle: saline

Measured: T/C

Nc1nc2ncc(CNc3ccc(C(=O)NC(CCC(=O)O)C(=O)O)nc3)nc2c(=O)[nH]1 (stereo unspecified)
inactive: dose: 0.75 mg/kg/injection, schedule: Q01DX009 (ip), vehicle: alkali diluted with saline 105 % of control | dose: 1.5 mg/kg/injection, schedule: Q01DX009 (ip), vehicle: alkali diluted with saline 102 % of control | dose: 3.0 mg/kg/injection, schedule: Q01DX009 (ip), vehicle: alkali diluted with saline 111 % of control | dose: 6.0 mg/kg/injection, schedule: Q01DX009 (ip), vehicle: alkali diluted with saline 102 % of control | dose: 12.0 mg/kg/injection, schedule: Q01DX009 (ip), vehicle: alkali diluted with saline 100 % of control | dose: 18.0 mg/kg/injection, schedule: Q01DX009 (ip), vehicle: alkali diluted with saline 112 % of control | dose: 24.0 mg/kg/injection, schedule: Q01DX009 (ip), vehicle: alkali diluted with saline 108 % of control | dose: 36.0 mg/kg/injection, schedule: Q01DX009 (ip), vehicle: alkali diluted with saline 108 % of control | dose: 48.0 mg/kg/injection, schedule: Q01DX009 (ip), vehicle: alkali diluted with saline 118 % of control | dose: 75.0 mg/kg/injection, schedule: Q01DX001 (ip), vehicle: alkali diluted with saline 111 % of control | dose: 150.0 mg/kg/injection, schedule: Q01DX001 (ip), vehicle: alkali diluted with saline 105 % of control

O=c1cccc(CCCCCCc2cccc(=O)[nH]2)[nH]1
inactive: [1] 106 % of control | [2] 95 % of control | [3] 96 % of control

O=S(=O)(Cl)CCCBr
inactive: dose: 100.0 mg/kg/injection, schedule: Q01DX009 (ip), vehicle: saline sonified 93 % of control | dose: 200.0 mg/kg/injection, schedule: Q01DX009 (ip), vehicle: saline sonified 86 % of control

O=c1[nH][nH]c(=O)c2c1nc(SCc1ccccc1Br)n2Cc1ccccc1
inactive: dose: 100.0 mg/kg/injection, schedule: Q01DX001 (ip), vehicle: carboxymethylcellulose (CMC) 95 % of control | dose: 200.0 mg/kg/injection, schedule: Q01DX001 (ip), vehicle: carboxymethylcellulose (CMC) 97 % of control | dose: 400.0 mg/kg/injection, schedule: Q01DX001 (ip), vehicle: carboxymethylcellulose (CMC) 97 % of control

CCC(C)C(=O)Nc1ccc(Cl)c(Cl)c1 (stereo unspecified)
inactive: dose: 100.0 mg/kg/injection, schedule: Q01DX001 (ip), vehicle: Klucel (hydroxypropylcellulose) (HPC) 108 % of control | dose: 200.0 mg/kg/injection, schedule: Q01DX001 (ip), vehicle: Klucel (hydroxypropylcellulose) (HPC) 95 % of control | [4] 90 % of control | [5] 102 % of control | dose: 400.0 mg/kg/injection, schedule: Q01DX001 (ip), vehicle: Klucel (hydroxypropylcellulose) (HPC) 95 % of control | dose: 500.0 mg/kg/injection, schedule: Q01DX Z (ip), vehicle: methylcellulose (MC) 96 % of control

CCOC(=O)C(C=O)(NC(=O)c1ccccc1)OCC (stereo unspecified)
inactive: [6] 94 % of control | [7] 101 % of control | [8] 105 % of control

C/C=C(\C)C(=NC)Nc1ccc(Cl)c(Cl)c1
inactive: [4] 94 % of control | [5] 90 % of control

O=C(Nc1ccc(Nc2ccncc2)cc1)c1ccc(Nc2ccnc3ccc([N+](=O)[O-])cc23)cc1
inactive: [9] 92 % of control | [10] 101 % of control | [11] 109 % of control | [12] 97 % of control | [13] 95 % of control | [14] 108 % of control

CCCCCCCCCCCCCCCCCOc1ccc(Sc2ccc([N+](=O)[O-])cc2)cc1
inactive: [12] 92 % of control

c1ccc(-c2nc(Oc3ccc(Oc4nc(-c5ccccc5)nc(-c5ccccc5)n4)cc3)nc(-c3ccccc3)n2)cc1
inactive: dose: 25.6 mg/kg/injection, schedule: Q04DX002 (ip), vehicle: saline with Tween-80 91 % of control | dose: 64.0 mg/kg/injection, schedule: Q04DX002 (ip), vehicle: saline with Tween-80 97 % of control | dose: 160.0 mg/kg/injection, schedule: Q04DX002 (ip), vehicle: saline with Tween-80 87 % of control | [7] 86 % of control | dose: 400.0 mg/kg/injection, schedule: Q04DX002 (ip), vehicle: saline with Tween-80 97 % of control

CSC(c1ccccc1F)=[N+]1CCCCC1
inactive: dose: 5.0 mg/kg/injection, schedule: Q01DX001 (ip), vehicle: saline 100 % of control | dose: 10.0 mg/kg/injection, schedule: Q01DX001 (ip), vehicle: saline 96 % of control | dose: 20.0 mg/kg/injection, schedule: Q01DX001 (ip), vehicle: saline 95 % of control

CCOC(=O)CC1(C)CCC2C1C(=O)OC2(C)C (stereo unspecified)
inactive: [1] 105 % of control | [2] 104 % of control | [3] 110 % of control

COc1ccc(C)cc1NC(=O)NC(C)=O
inactive: [15] 92 % of control | [16] 88 % of control | [17] 95 % of control

CC(=O)NCc1ccc(N2C(N)=NC(N)=NC2(C)C)cc1
inactive: dose: 75.0 mg/kg/injection, schedule: Q01DX009 (ip), vehicle: saline 92 % of control | dose: 150.0 mg/kg/injection, schedule: Q01DX009 (ip), vehicle: saline 87 % of control | dose: 300.0 mg/kg/injection, schedule: Q01DX009 (ip), vehicle: saline 90 % of control

Cc1cc(O)ccc1C#N
inactive: dose: 100.0 mg/kg/injection, schedule: Q04DX002 (ip), vehicle: saline 102 % of control | dose: 200.0 mg/kg/injection, schedule: Q04DX002 (ip), vehicle: saline 102 % of control | dose: 400.0 mg/kg/injection, schedule: Q04DX002 (ip), vehicle: saline 104 % of control

CC(=O)Nc1ccccc1F
inactive: [9] 105 % of control | [10] 101 % of control | [11] 105 % of control | [12] 102 % of control | [13] 103 % of control | [14] 95 % of control

NC(=O)C(Br)CBr (stereo unspecified)
inactive: [18] 98 % of control | dose: 50.0 mg/kg/injection, schedule: Q01DX009 (ip), vehicle: saline 95 % of control | dose: 100.0 mg/kg/injection, schedule: Q04DX003 (ip), vehicle: saline 101 % of control

COc1ccccc1/C=N/NC(=O)c1cccc2ccccc12
inactive: [3] 87 % of control

CCOc1cc(N2CCOCC2)c(OCC)cc1N
inactive: dose: 6.0 mg/kg/injection, schedule: Q01DX009 (ip), vehicle: saline 103 % of control | dose: 12.0 mg/kg/injection, schedule: Q01DX009 (ip), vehicle: saline 100 % of control | dose: 12.0 mg/kg/injection, schedule: Q04DX003 (ip), vehicle: other 100 % of control | [18] 94 % of control | dose: 25.0 mg/kg/injection, schedule: Q04DX003 (ip), vehicle: other 95 % of control

O=C(NC/C=C/Br)C(F)(F)F
inactive: dose: 100.0 mg/kg/injection, schedule: Q01DX001 (ip), vehicle: saline with Tween-80 118 % of control | [6] 98 % of control | dose: 200.0 mg/kg/injection, schedule: Q01DX001 (ip), vehicle: saline with Tween-80 96 % of control | [7] 95 % of control | dose: 400.0 mg/kg/injection, schedule: Q01DX001 (ip), vehicle: saline with Tween-80 95 % of control | [8] 97 % of control

CCOCCC(=O)CC(=O)OC
inactive: [15] 96 % of control | [16] 100 % of control | [17] 96 % of control
